The structures appear in SMILES notation.

The subject of experiment [1] is COLO 205 human colon cancer cells. The experiment can be described thus: cell viability, ATPLite assay, serum-free condition. In kind it is cell-based. The following applies: for effect on cell viability: 48 h; for cells killed: incubation time (24 or 48 h) not given. How it is done:
(§1) Cell viability analysis: To examine the effect of the serum, the cells (2×10^4) were plated onto well of a 96-well microplate and cultured in complete culture medium at 37° C. for 24 h, washed with serum-free medium, and further incubated in 100 μl of complete medium or serum-free medium at 37° C. for the indicated times. Cell viability was assessed by measurement of cellular ATP levels using ATPlite™-M luminescence assay system (PerkinElmer, Inc., Waltham, Mass.) according to the manufacturer's instructions, and determined as a percentage relative to the luminescence value of cells, which were cultured in complete medium, used as a control. The assay of cell viability was repeated in triplicate experiments. Data were statistically analyzed by the Student t test. In case of the Student t test, if variance of homogeneity was rejected (P<0.05 by F test), the Welch test was applied. Probability values (P-values) less than 0.05 were considered to be statistically significant. All P-values were rounded to four decimal places.
(§2) To evaluate the effect of TRA-8 in serum-free condition, the cells were cultured as described above, washed with serum-free medium and treated with or without TRA-8 or chemotherapeutic agents in 100 μl of serum-free medium at 37° C. for the indicated times. Cell viability was assessed using ATPLite™ assay (PerkinElmer, Inc., Waltham, Mass.) and determined as a percentage relative to the luminescence value of untreated cells used as a control. The assay of cell viability was repeated in triplicate experiments.
Background: ATP-based viability assays read luminescence as a measure of living cells.

The test system of experiment [2] is WiDr human colon cancer cells. The description is as above. In kind it is cell-based. The following applies: for cells killed: incubation time (24 or 48 h) not given. The method, then: as §1, §2
The next experiment deals with COLO 205 tumors. The experiment can be described thus: COLO 205 xenograft model, tumor size. In kind it is in vivo, athymic nude mice. Particulars: TRA-8 10 mg/kg intraperitoneally days 16 and 20; CPT-11 33 mg/kg intravenously days 17 and 21. How it is done: Preparation of sera from tumor-bearing mice. COLO 205 cells (1×10^7) were inoculated subcutaneously into athymic nude mice on day 0. The mice were grouped randomly. Each of the groups consisted of 3 mice. TRA-8 (10 mg/kg) was administered intraperitoneally to mice on days 16 and 20. CPT-11 (33 mg/kg) was administered intravenously to mice on days 17 and 21. Length and width of solid tumors were measured twice weekly. Tumor volume (mm^3) was calculated as axb^2/2, where a and b are the length and the width (mm) of the tumor, respectively. Tumor size was determined as a percentage relative to the tumor volume on day 16. Sera were obtained from the tumor-bearing mice on day 23.

Consider `CC(=O)O[C@H]1C(=O)[C@@]2(C)[C@H]([C@H](OC(=O)c3ccccc3)[C@]3(O)C[C@H](OC(=O)[C@H](O)[C@@H](NC(=O)c4ccccc4)c4ccccc4)C(C)=C1C3(C)C)[C@]1(OC(C)=O)CO[C@@H]1C[C@@H]2O` [paclitaxel], for which the “effect on cell viability” value is “affected cell viability” in experiment [1] (1 μM paclitaxel) and “affected cell viability” in experiment [2] (1 μM paclitaxel, 48 h). The figures for the cells killed in experiment [1] (1 μM paclitaxel) and in experiment [2] (1 μM paclitaxel) were 62% and 72%, respectively.
Take `CCc1c2c(nc3ccc(OC(=O)N4CCC(N5CCCCC5)CC4)cc13)-c1cc3c(c(=O)n1C2)COC(=O)[C@]3(O)CC` [CPT-11]: in experiment [1] (50 μM agent), the “effect on cell viability” value is recorded as “significant effect” and the cells killed was determined as 71%. Further, in the experiment with COLO 205 tumors, the “antitumor efficacy (tumor size)” value is listed as “not antitumor effects”.
Turning to `O=C1[O][Pt]2([NH][C@@H]3CCCC[C@H]3[NH]2)[O]C1=O` [oxaliplatin], the “effect on cell viability” value in experiment [1] (50 μM agent) is recorded as “affected cell viability”; in experiment [2] (50 μM oxaliplatin, 24 h), “significant effect”; in experiment [2] (50 μM oxaliplatin, 48 h) it was “affected cell viability”. For the same molecule, the figures for the cells killed in experiment [1] (50 μM agent) and in experiment [2] (50 μM oxaliplatin) were 41% and 99%, respectively.

The values above are taken from patent publication US8119355B2, “Biomarkers for cancer sensitivity and uses thereof” (The UAB Research Foundation, priority 2006, dated 2012).
